Assay results as given in patent publication US6399664B2, “Method of treating cancer, specifically leukemia, with ozone” (priority 1996, dated 2002).

Experiments:
[1] = test system: chronic myeloid leukemia (CML); test: Ozone/ROI therapy (iv injection, adjunct minor autohemotherapy) of CML canine #198675; assay type: in vivo
Procedure: The attending veterinarian discussed euthanasia and the ozone or ROI therapy described in this invention with the owner under strict confidence. The owner and all attending veterinarians signed consent and confidentiality forms and the ozone or ROI therapy began on Sep. 23, 1997 and continued for 16 weeks. Prior to each weekly ozone or ROI treatment the patient's complete blood counts were measured using a Coulter Counter Hematology Analyzer (Coulter Electronics Canada Co.). The leukocyte differential counts were determined manually by the pathologist and recorded in FIG. 14. Ozone and ROI's were generated from a high voltage corona discharge electrical ozone generator using medical grade oxygen as shown in FIG. 13. Ozone/oxygen gas (30 to 60 ml) was injected intra-venously (iv) through a sterile catheter needle (Abbocath-T, 22 g×11⁄4 in.; Abbott Ireland) inserted in the leg vein of the mammal (canine #198675) with a sterile extension set (79 cm, […], Abbott Ireland) attached to the syringe containing the ozone ROI gas mixture. The ozone/oxygen gas mixture was slowly injected over a 10 to 20 minute period to allow maximum gas absorption. The secondary or adjunct to the preferred route of administration was minor autohemotherapy (minor AHT) where heparinized whole blood (7 ml each treatment) was gently mixed in a disposable syringe or devise with increasing doses of ozone to a maximum of 25 ml at 34 to 42 μg/ml (dose is species specific). The blood gas mixture was allowed to equilibrate at room temperature for 1 to 5 minutes with intermittent mixing. The excess gas was evacuated prior to intramuscular (im) or subcutaneous (sc) injection of the ozonated blood at several locations. Patients were accessed prior to, during and post treatment by blood tests, clinical response, and biopsy when appropriate.

[2] = test system: K562, Human CML cell line; test: K562 viability by Trypan blue exclusion after ozone micro-bubbling; assay type: cell-based; settings: ozone 5, 10, 15, 25 μg/ml
Procedure: (§1) Ozone and ROI's were generated using medical grade oxygen from a high voltage corona discharge electrical ozone generator (Carpendale and Freeberg, 1991; Viebahn, 1994; FIG. 13). Liquid RPMI complete media suspension of K562 cell cultures or normal human whole blood (10 ml each treatment) was processed through a micro-bubbling device at several ozone concentrations (5, 10, 15, and 25 μg/ml). In addition, a 100% oxygen treated and non-processed control samples were also examined. After processing, complete blood counts were measured on all whole blood samples. Peripheral blood mononuclear cells (PBMC) were isolated using a standard density gradient of 1.077 g/ml and washed with Iscove's medium. Viability and cell counts were determined manually using a hemocytrometer and a 4% solution of Trypan blue. Cell concentrations were adjusted to 2.0×10^6 cells/ml. Cells were mixed in a 1:10 (v/v) ratio with methylcellulose medium with recombinant growth factors (#HCC-4434, StemCell Technologies Inc.) and plated to contain 2×10^5 cells per plate in duplicate for normal PBMCs and 2×10^4 for K562 cells. Plates were incubated at 37° C. in a CO2/O2 incubator. Colonies were scored on day 5, 8, 10 and day 14 according to the scoring criteria by StemCell Technologies. […]

[3] = test system: normal human peripheral blood leukocytes; test: Effects of ozone on normal human leukocytes run in parallel; assay type: cell-based; settings: at the concentrations used
Procedure: as §1

[4] = test system: normal human peripheral blood mononuclear cells (PBMC); test: Normal human PBMC colony formation in methylcellulose medium; assay type: cell-based; settings: ozone 5, 10, 15, 25 μg/ml
Procedure: as §1

[5] = test system: cytokine levels such as IL-1, IL-2 and IFN-γ; settings: in humans; cited from earlier work
[6] = test system: cultured human cancerous cell lines derived from lung, breast and uterine solid tumours; settings: little damage to normal cell growth; cited from earlier work
[7] = test system: K562 leukemic cell line; test: K562 colony formation and differentiation in methylcellulose medium; assay type: cell-based, human
Procedure: Ozone and ROI's were generated using medical grade oxygen from a high voltage corona discharge electrical ozone generator (Carpendale and Freeberg, 1991; Viebahn, 1994; FIG. 13). Liquid RPMI complete media suspension of K562 cell cultures or normal human whole blood (10 ml each treatment) was processed through a micro-bubbling device at several ozone concentrations (5, 10, 15, and 25 μg/ml). In addition, a 100% oxygen treated and non-processed control samples were also examined. After processing, complete blood counts were measured on all whole blood samples. Peripheral blood mononuclear cells (PBMC) were isolated using a standard density gradient of 1.077 g/ml and washed with Iscove's medium. Viability and cell counts were determined manually using a hemocytrometer and a 4% solution of Trypan blue. Cell concentrations were adjusted to 2.0×10^6 cells/ml. Cells were mixed in a 1:10 (v/v) ratio with methylcellulose medium with recombinant growth factors (#HCC-4434, StemCell Technologies Inc.) and plated to contain 2×10^5 cells per plate in duplicate for normal PBMCs and 2×10^4 for K562 cells. Plates were incubated at 37° C. in a CO2/O2 incubator. Colonies were scored on day 5, 8, 10 and day 14 according to the scoring criteria by StemCell Technologies. The data results for cell viability, total colonies (proliferation) and individual colony cell types (differentiation) are presented in FIGS. 1-8.

[8] = test system: chronic myeloid leukemia (CML); test: Conventional chemotherapy with Hydroxyurea of CML canine #198675
[9] = 16 μg/ml ozone injected, up to 197 ug total, in vivo concentration less than 0.25 μg/ml
[10] = 28 to 42 μg/ml ozone injected, up to 2100 ug total, in vivo concentration 0.5 to 1.5 μg/ml
[11] = 500 mg twice daily for approximately one year

## O=[O+][O-] [ozone]
[1]; [9]
  effect on canine hematopoietic system: significant activation
  production of leukemic cells: significant increase
[1]; 16 week treatment
  progression of CML (total WBC and RBC counts): reversed the progression of CML
[1]; [10]
  effect on canine hematopoietic system: significant inhibition
  production of leukemic cells: significant reduction
[1]; CML canine #198675, weekly ozone/ROI treatment, 16 weeks
  patient's quality of life: increase
[1]; CML canine #198675, diarrhea not related to CML
  diarrhea: slight improvement in the diarrhea, although only temporary
[1]; after the first two weeks of treatment
  vomiting: decrease
[1]; ozone dose dependent, 16 to 42 μg/ml generated ozone concentration
  ability of the immature stem cell to differentiate into the different blood cell types: improved
[1]; with the increase of the internal ozone concentration in the mammal
  total WBC counts: decrease
[2]
  viability of malignant cells: reduction in the viability
[3]
  effects on normal human leukocytes: no significant deleterious effects
[4]
  effects in the colonies from normal human PBMC: no deleterious effects
[5]
  cytokine levels such as IL-1, IL-2 and IFN-γ: increases cytokine levels
[6]
  growth of cultured human cancerous cell lines: selectively inhibit the growth
[7]; increasing concentrations of ozone
  colony differentiation, dose response: increased colony differentiation into normal cells
[7]; ozone 5, 10, 15, 25 μg/ml
  production of normal hematopoietic colonies (CFU-E, BFU-E, GM-CFU, CFU-GEMM) from K562: stimulates the production of normal hematopoietic colonies
[7]; ozone 5, 10, 15, 25 μg/ml, total colonies
  proliferation of leukemia derived colonies: inhibits the proliferation

## NC(=O)NO [Hydroxyurea]
[8]; [11]
  RBC counts: increased with time
  WBC levels relative to normal canine range of 6.1 to 17.4×10^9 cells per liter: never returned to the normal canine range
  side effects (clinical presentation): depression, lethargy, severe to mild diarrhea, anorexia, vomiting, weight loss, occasionally vaginal bleeding, abdominal pain and splenomegaly
  total WBC counts: decrease
[8]; after one year of chemotherapy
  time of entering blast crisis after cessation of conventional chemotherapy: 1.5 months
